Measurements taken from ChEMBL document CHEMBL1201862, “PubChem BioAssay data set” (2004).
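In this assay, cells in 96-well plates receive the compound at five concentrations for 48 hours. Endpoints are linearly interpolated between the surrounding concentrations. Abbreviation: GI50, concentration required for 50% inhibition of growth.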 The source made the active and inactive calls. Cut-off read from the data, not from the text of the source: active = GI50 up to about 1.1 µM and inactive = higher.

Key:
Assay in all cases: DTP human tumour cell line panel, 48 h
SF-268 = tested on: SF-268
MCF7 = tested on: MCF7
HL-60 = tested on: HL-60
SNB-75 = tested on: SNB-75
COLO 205 = tested on: COLO 205
A549 = tested on: A549
OVCAR-8 = tested on: OVCAR-8
UO-31 = tested on: UO-31
K562 = tested on: K562
SF-295 = tested on: SF-295
HOP-92 = tested on: HOP-92
M14 = tested on: M14
NCI/ADR-RES = tested on: NCI/ADR-RES
U-251 = tested on: U-251
SK-MEL-5 = tested on: SK-MEL-5
HCT-116 = tested on: HCT-116
HCT-15 = tested on: HCT-15
MOLT-4 = tested on: MOLT-4
SW-620 = tested on: SW-620
PC-3 = tested on: PC-3

Row | SMILES | GI50 (SF-268) | GI50 (MCF7) | GI50 (HL-60) | GI50 (SNB-75) | GI50 (COLO 205) | GI50 (A549) | GI50 (OVCAR-8) | GI50 (UO-31) | GI50 (K562) | GI50 (SF-295) | GI50 (HOP-92) | GI50 (M14) | GI50 (NCI/ADR-RES) | GI50 (U-251) | GI50 (SK-MEL-5) | GI50 (HCT-116) | GI50 (HCT-15) | GI50 (MOLT-4) | GI50 (SW-620) | GI50 (PC-3)
1 | CN(C)CCN(/C(=N/c1ccccc1)N1CCCC1)c1ccccc1 | > 100 µM (inactive) | 42.5 µM (inactive) | 11.6 µM (inactive) | 49 µM (inactive) | 16.9 µM (inactive) | 58.3 µM (inactive) | 68.7 µM (inactive) | 21.9 µM (inactive) | 10.3 µM (inactive) | 18.4 µM (inactive) | 96.8 µM (inactive) | 43.7 µM (inactive) | 42.3 µM (inactive) | 68.5 µM (inactive) | 30.2 µM (inactive) | 3.91 µM (inactive) | 26.8 µM | 4.92 µM (inactive) | 31.7 µM (inactive) | 19.8 µM (inactive)
2 | CC(C)(C)[Si](C)(C)OCC1OC(n2cnc3c(=O)[nH]cnc32)CC1O (stereo not given) | > 100 µM (inactive) | > 100 µM (inactive) | > 100 µM (inactive) | 20.8 µM (inactive) | > 100 µM (inactive) | > 100 µM (inactive) | > 100 µM (inactive) | > 100 µM (inactive) | > 100 µM (inactive) | > 100 µM (inactive) | > 100 µM (inactive) | > 100 µM (inactive) | > 100 µM (inactive) | > 100 µM (inactive) | 60.5 µM (inactive) | > 100 µM (inactive) | > 100 µM | > 100 µM (inactive) | > 100 µM (inactive) | > 100 µM (inactive)
3 | O=C1c2cc([N+](=O)[O-])sc2C(=O)c2ccsc21 | 0.361 µM (active) | 0.213 µM (active) | < 0.01 µM (active) | 1.4 µM (inactive) | 0.525 µM (active) | 1.83 µM (inactive) | 0.465 µM (active) | 1.2 µM (inactive) | 0.0216 µM (active) | 0.354 µM (active) | 0.201 µM (active) | 0.258 µM (active) | 0.824 µM (active) | 0.203 µM (active) | 0.17 µM (active) | 0.293 µM (active) | 0.284 µM | 0.215 µM (active) | 0.245 µM (active) | 0.532 µM (active)
4 | CC(C)(C)[C@H]1CCC2(OCCO2)[C@](O)(CCCO)C1 | > 100 µM (inactive) | > 100 µM (inactive) | > 100 µM (inactive) | > 100 µM (inactive) | > 100 µM (inactive) | > 100 µM (inactive) | > 100 µM (inactive) | > 100 µM (inactive) | > 100 µM (inactive) | > 100 µM (inactive) | > 100 µM (inactive) | > 100 µM (inactive) | > 100 µM (inactive) | > 100 µM (inactive) | > 100 µM (inactive) | > 100 µM (inactive) | > 100 µM | > 100 µM (inactive) | > 100 µM (inactive) | > 100 µM (inactive)
5 | COC(=O)c1c(O)c(C#N)c2[nH]c3ccccc3n2c1=O | > 100 µM (inactive) | > 100 µM (inactive) | > 100 µM (inactive) | > 100 µM (inactive) | > 100 µM (inactive) | > 100 µM (inactive) | > 100 µM (inactive) | > 100 µM (inactive) | > 100 µM (inactive) | > 100 µM (inactive) | > 100 µM (inactive) | > 100 µM (inactive) | > 100 µM (inactive) | > 100 µM (inactive) | > 100 µM (inactive) | > 100 µM (inactive) | > 100 µM | > 100 µM (inactive) | > 100 µM (inactive) | > 100 µM (inactive)
6 | N/C(=N\c1ccc(Cl)cc1)c1ccccc1N | > 100 µM (inactive) | > 100 µM (inactive) | > 100 µM (inactive) | > 100 µM (inactive) | > 100 µM (inactive) | > 100 µM (inactive) | > 100 µM (inactive) | > 100 µM (inactive) | > 100 µM (inactive) | > 100 µM (inactive) | 3.82 µM (inactive) | > 100 µM (inactive) | > 100 µM (inactive) | > 100 µM (inactive) | > 100 µM (inactive) | > 100 µM (inactive) | > 100 µM | > 100 µM (inactive) | > 100 µM (inactive) | > 100 µM (inactive)
7 | COc1cc2c(cc1OC)-c1cc3ccc(OC)c(OC)c3c[n+]1CC2 [PALMATINE CHLORIDE] | 82.4 µM (inactive) | > 100 µM (inactive) | > 100 µM (inactive) | > 100 µM (inactive) | 24.4 µM (inactive) | > 100 µM (inactive) | > 100 µM (inactive) | > 100 µM (inactive) | 52.4 µM (inactive) | > 100 µM (inactive) | > 100 µM (inactive) | > 100 µM (inactive) | > 100 µM (inactive) | 27.9 µM (inactive) | 34.8 µM (inactive) | > 100 µM (inactive) | > 100 µM | > 100 µM (inactive) | > 100 µM (inactive) | > 100 µM (inactive)
8 | Clc1nc(Cl)c(Cl)c(Cl)n1 | 17.2 µM (inactive) | 15.8 µM (inactive) | 13.5 µM (inactive) | 17.8 µM (inactive) | 8.57 µM (inactive) | 19.8 µM (inactive) | 26.4 µM (inactive) | 24.5 µM (inactive) | 8.99 µM (inactive) | 19.3 µM (inactive) | 25.5 µM (inactive) | 17 µM (inactive) | 23.4 µM (inactive) | 16.7 µM (inactive) | 17.6 µM (inactive) | 18.9 µM (inactive) | 19.1 µM | 6.21 µM (inactive) | 6.85 µM (inactive) | 16.6 µM (inactive)
9 | COc1ccc2nc3c([N+](=O)[O-])ccc4c3c(c2c1)N(CCCN(C)C)C(=S)N4CCCN(C)C | 4.46 µM (inactive) | 5.07 µM (inactive) | 66.4 µM (inactive) | 8.41 µM (inactive) | 1.54 µM (inactive) | 5.45 µM (inactive) | 5.79 µM (inactive) | 7.85 µM (inactive) | 1.77 µM (inactive) | 4.6 µM (inactive) | 4.79 µM (inactive) | 4 µM (inactive) | 6.62 µM (inactive) | 6.37 µM (inactive) | 4.94 µM (inactive) | 2.1 µM (inactive) | 3.4 µM | 3.5 µM (inactive) | 2.62 µM (inactive) | 3.73 µM (inactive)
10 | c1ccc2c(c1)CCN2CCc1c[nH]c2ccccc12 | > 10 µM (inactive) | > 10 µM (inactive) | > 10 µM (inactive) | > 10 µM (inactive) | > 10 µM (inactive) | > 10 µM (inactive) | > 10 µM (inactive) | > 10 µM (inactive) | > 10 µM (inactive) | > 10 µM (inactive) | > 10 µM (inactive) | > 10 µM (inactive) | > 10 µM (inactive) | > 10 µM (inactive) | > 10 µM (inactive) | > 10 µM (inactive) | > 10 µM | > 10 µM (inactive) | > 10 µM (inactive) | > 10 µM (inactive)
11 | COc1ccc(OC)c2c1C(=O)C(Cl)=C(Cl)C2=O | 13.5 µM (inactive) | 2.6 µM (inactive) | 44.5 µM (inactive) | 14.2 µM (inactive) | 1.56 µM (inactive) | 22.3 µM (inactive) | 6.46 µM (inactive) | 2.44 µM (inactive) | > 22.2 µM (inactive) | 20.1 µM (inactive) | 2.51 µM (inactive) | 2.47 µM (inactive) | 2.58 µM (inactive) | 18 µM (inactive) | 5.64 µM (inactive) | 1.72 µM (inactive) | 3.3 µM | 2.51 µM (inactive) | 1.81 µM (inactive) | 14.5 µM (inactive)
12 | CCN(CC)CCNc1ccc2ncn3c4ccc(O)cc4c(=O)c1c23 | 0.721 µM (active) | 0.15 µM (active) | 0.131 µM (active) | 0.652 µM (active) | 0.769 µM (active) | 0.0248 µM (active) | 0.561 µM (active) | 0.429 µM (active) | 1.04 µM (active) | 0.216 µM (active) | 0.434 µM (active) | 1.28 µM (inactive) | 2.81 µM (inactive) | 0.193 µM (active) | 0.289 µM (active) | 0.212 µM (active) | 0.214 µM | 0.0146 µM (active) | 0.216 µM (active) | 1.49 µM (inactive)
13 | Nc1c(-c2cccc3ccccc23)c2ccc([N+](=O)[O-])cc2c(=O)n1-c1nc2ccccc2s1 | 3.18 µM (inactive) | 1.5 µM (inactive) | 2.18 µM (inactive) | 0.875 µM (active) | 18.1 µM (inactive) | 3.32 µM (inactive) | 2.16 µM (inactive) | 4.1 µM (inactive) | 6.93 µM (inactive) | 5.53 µM (inactive) | 3.23 µM (inactive) | 11.7 µM (inactive) | 2.26 µM (inactive) | 3.71 µM (inactive) | 6.73 µM (inactive) | 5.13 µM (inactive) | 6.38 µM | 3.03 µM (inactive) | 11.2 µM (inactive) | 4.84 µM (inactive)
14 | COc1ccc(N2C(=O)/C(=C/c3ccc(N(CCC#N)CCC#N)cc3)N=C2c2ccccc2)cc1 | > 100 µM (inactive) | > 100 µM (inactive) | > 100 µM (inactive) | > 100 µM (inactive) | > 100 µM (inactive) | > 100 µM (inactive) | > 100 µM (inactive) | > 100 µM (inactive) | > 100 µM (inactive) | > 100 µM (inactive) | > 100 µM (inactive) | > 100 µM (inactive) | > 100 µM (inactive) | > 100 µM (inactive) | > 100 µM (inactive) | > 100 µM (inactive) | > 100 µM | > 100 µM (inactive) | > 100 µM (inactive) | > 100 µM (inactive)
